Measured values: US7994176B2, “Inhibitors of 11-beta-hydroxysteroid dehydrogenase 1” (Eli Lilly and Company, priority 2006, dated 2011)

Columns and labels:
cortisone conversion = test: Acute in vivo cortisone conversion assay; conditions: male C57BL/6 mice, oral, cortisone challenge 16 hours post dose, serum cortisol
Protocol: Acute In Vivo Cortisone Conversion Assay
In general, compounds are dosed orally into mice, the mice are challenged with a subcutaneous injection of cortisone at a set timepoint after compound injection, and the blood of each animal is collected some time later. Separated serum is then isolated and analyzed for levels of cortisone and cortisol by LC-MS/MS, followed by calculation of mean cortisol and percent inhibition of each dosing group. Specifically, male C57BL/6 mice are obtained from Harlan Sprague Dawley at average weight of 25 grams. Exact weights are taken upon arrival and the mice randomized into groups of similar weights. Compounds are prepared in 1% w-w HEC, 0.25% w-w polysorbate 80, 0.05% w-w Dow Corning antifoam #1510-US at various doses based on assumed average weight of 25 grams. Compounds are dosed orally, 200 μl per animal, followed by a subcutaneous dose, 200 μl per animal, of 30 mg/kg cortisone at 1 to 24 hours post compound dose. At 10 minutes post cortisone challenge, each animal is euthanized for 1 minute in a CO2 chamber, followed by blood collection via cardiac puncture into serum separator tubes. Once fully clotted, tubes are spun at 2500×g, 4° C. for 15 minutes, the serum transferred to wells of 96-well plates (Corning Inc, Costar #4410, cluster tubes, 1.2 ml, polypropylene), and the plates are frozen at −20° C. until analysis by LC-MS/MS. […]

11β-HSD1 = biological target: T1, 11β-HSD1 (Homo sapiens, UniProt P28845); test: Human aortic smooth muscle cell assay; type: cell-based; conditions: primary human AoSMC, hTNFα-induced 11β-HSD1, cortisol formed from cortisone
T1 construct: hTNFα to induce expression of 11β-HSD1; endogenous in cells; host or cells: primary human aortic smooth muscle cells (AoSMC), induced with hTNFα
T1 sequence (P28845 whole entry): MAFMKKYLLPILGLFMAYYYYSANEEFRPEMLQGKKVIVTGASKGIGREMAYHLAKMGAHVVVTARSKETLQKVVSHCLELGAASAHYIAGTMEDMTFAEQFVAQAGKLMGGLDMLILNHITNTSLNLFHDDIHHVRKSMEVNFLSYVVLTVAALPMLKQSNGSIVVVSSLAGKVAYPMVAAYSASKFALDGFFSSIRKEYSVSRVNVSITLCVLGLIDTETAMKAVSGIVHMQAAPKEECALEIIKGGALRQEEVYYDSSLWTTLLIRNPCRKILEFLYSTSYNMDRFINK
Protocol: Human Aortic Smooth Muscle Cell Assay
Primary human aortic smooth muscle cells (AoSMC) are cultured in 5% FBS growth medium to a passage number of 6, then pelleted by centrifugation and resuspended at a density of 9×10^4 cells/mL in 0.5% FBS assay medium containing 12 ng/mL hTNFα to induce expression of 11β-HSD1. Cells are seeded into 96-well tissue culture assay plates at 100 μL/well (9×10^3 cells/well) and incubated for 48 hours at 37° C., 5% CO2. Following induction, cells are incubated for 4 hours at 37° C., 5% CO2 in assay medium containing test compounds then treated with 10 μL/well of 10 μM cortisone solubilized in assay medium, and incubated for 16 hours at 37° C., 5% CO2. Medium from each well is transferred to a plate for subsequent analysis of cortisol using a competitive fluorescence resonance time resolved immunoassay. […] Higher levels of free cortisol result in diminishing energy transfer from the Europium-IgG to the APC-cortisol complex resulting in less APC fluorescence. Fluorescent intensities for Europium and APC are measured using a LJL Analyst AD. Europium and APC […] is measured using 360 nm excitation and 615 nm and 650 nm emission filters respectively. […] Fluorescent intensities measured for APC are modified by dividing by the Eu fluorescence (APC/Eu). […]

SMILES	% Inhibition after 16 hours (cortisone conversion; dose of 10 mg/kg)	IC50 (11β-HSD1) [nM]	% Inhibition after 16 hours (cortisone conversion; dose of 30 mg/kg)
O=C(c1ccc(-c2cc(Cl)c(CN3CCC(N4CCCCC4)C3=O)c(Cl)c2)cc1)N1CCC(C(F)(F)F)CC1 (racemic) [Example 16, 1-[3,5-Dichloro-4′-(4-trifluoromethyl-piperidine-1-carbonyl)-biphenyl-4-ylmethyl]-3-piperidin-1-yl-pyrrolidin-2-one]	38 (dose of 10 (mg/kg)) %	294	
O=C(c1ccc(-c2cc(Cl)c(CN3CCC(C4CCCCC4)C3=O)c(Cl)c2)cc1)N1CCN(CCF)CC1 (racemic) [Example 5, 3-Cyclohexyl-1-{3,5-dichloro-4′-[4-(2-fluoro-ethyl)-piperazine-1-carbonyl]-biphenyl-4-ylmethyl}-pyrrolidin-2-one]		15.4	84 (dose of 30 (mg/kg)) %
